# Laboratory results reported in the NIST ThermoML archive (doi:10.1016/j.jct.2006.10.008).
# Numbers after ± are expanded uncertainties.
# Legend:
# [1] = xn = mol fraction of the nth substance listed; details: 298.15 K, 101 kPa, Liquid
# [2] = excess molar enthalpy (molar enthalpy of mixing); xn = mol fraction of the nth substance listed; details: 298.15 K, 101 kPa, Liquid, Calvet calorimetry
compound,measurement,setting,value
"ClCCCCCl [1,4-dichlorobutane] + COC=O",mass density,[1]; x2 = 0.1002,1123.14 ± 0.57 kg/m3
same,mass density,[1]; x2 = 0.1967,1112.22 ± 0.54 kg/m3
same,mass density,[1]; x2 = 0.2763,1102.15 ± 0.52 kg/m3
same,mass density,[1]; x2 = 0.3523,1092.16 ± 0.5 kg/m3
same,mass density,[1]; x2 = 0.4263,1081.69 ± 0.48 kg/m3
same,mass density,[1]; x2 = 0.4898,1072.05 ± 0.46 kg/m3
same,mass density,[1]; x2 = 0.5567,1061.23 ± 0.44 kg/m3
same,mass density,[1]; x2 = 0.615,1051.3 ± 0.42 kg/m3
same,mass density,[1]; x2 = 0.6692,1041.41 ± 0.4 kg/m3
same,mass density,[1]; x2 = 0.7199,1031.71 ± 0.39 kg/m3
same,mass density,[1]; x2 = 0.7663,1022.34 ± 0.37 kg/m3
same,mass density,[1]; x2 = 0.8116,1012.65 ± 0.35 kg/m3
same,mass density,[1]; x2 = 0.8535,1003.36 ± 0.33 kg/m3
same,mass density,[1]; x2 = 0.8907,994.7 ± 0.33 kg/m3
same,mass density,[1]; x2 = 0.9302,985.1 ± 0.34 kg/m3
same,mass density,[1]; x2 = 0.9657,976.07 ± 0.35 kg/m3
same,excess molar enthalpy,[2]; x2 = 0.1071,0.0424 ± 0.000526 kcal/mol
same,excess molar enthalpy,[2]; x2 = 0.2326,0.08 ± 0.000813 kcal/mol
same,excess molar enthalpy,[2]; x2 = 0.3559,0.1062 ± 0.001 kcal/mol
same,excess molar enthalpy,[2]; x2 = 0.4541,0.1196 ± 0.00112 kcal/mol
same,excess molar enthalpy,[2]; x2 = 0.5426,0.1239 ± 0.00115 kcal/mol
same,excess molar enthalpy,[2]; x2 = 0.5971,0.123 ± 0.00115 kcal/mol
same,excess molar enthalpy,[2]; x2 = 0.6515,0.1218 ± 0.00112 kcal/mol
same,excess molar enthalpy,[2]; x2 = 0.7083,0.1165 ± 0.0011 kcal/mol
same,excess molar enthalpy,[2]; x2 = 0.7662,0.108 ± 0.00103 kcal/mol
same,excess molar enthalpy,[2]; x2 = 0.8103,0.09393 ± 0.000908 kcal/mol
same,excess molar enthalpy,[2]; x2 = 0.8803,0.0755 ± 0.000789 kcal/mol
same,excess molar enthalpy,[2]; x2 = 0.9274,0.0548 ± 0.000645 kcal/mol
same,excess molar enthalpy,[2]; x2 = 0.9702,0.032 ± 0.000478 kcal/mol
"ClCCCCCl [1,4-dichlorobutane] + CCCCOC=O",mass density,[1]; x2 = 0.0624,1118.28 ± 0.56 kg/m3
same,mass density,[1]; x2 = 0.1208,1103.88 ± 0.53 kg/m3
same,mass density,[1]; x2 = 0.1776,1089.9 ± 0.5 kg/m3
same,mass density,[1]; x2 = 0.2372,1075.3 ± 0.47 kg/m3
same,mass density,[1]; x2 = 0.346,1048.8 ± 0.42 kg/m3
same,mass density,[1]; x2 = 0.4096,1033.38 ± 0.39 kg/m3
same,mass density,[1]; x2 = 0.4679,1019.27 ± 0.36 kg/m3
same,mass density,[1]; x2 = 0.5213,1006.41 ± 0.34 kg/m3
same,mass density,[1]; x2 = 0.6434,977.11 ± 0.35 kg/m3
same,mass density,[1]; x2 = 0.7039,962.64 ± 0.37 kg/m3
same,mass density,[1]; x2 = 0.7624,948.68 ± 0.38 kg/m3
same,mass density,[1]; x2 = 0.821,934.76 ± 0.4 kg/m3
same,mass density,[1]; x2 = 0.8802,920.71 ± 0.42 kg/m3
same,mass density,[1]; x2 = 0.9398,906.62 ± 0.43 kg/m3
same,excess molar enthalpy,[2]; x2 = 0.0614,-0.00275 ± 0.000215 kcal/mol
same,excess molar enthalpy,[2]; x2 = 0.1294,-0.00724 ± 0.000239 kcal/mol
same,excess molar enthalpy,[2]; x2 = 0.1998,-0.0131 ± 0.000287 kcal/mol
same,excess molar enthalpy,[2]; x2 = 0.2674,-0.0218 ± 0.000359 kcal/mol
same,excess molar enthalpy,[2]; x2 = 0.3309,-0.0293 ± 0.000406 kcal/mol
same,excess molar enthalpy,[2]; x2 = 0.3925,-0.039 ± 0.000502 kcal/mol
same,excess molar enthalpy,[2]; x2 = 0.4407,-0.0473 ± 0.00055 kcal/mol
same,excess molar enthalpy,[2]; x2 = 0.4897,-0.0533 ± 0.000598 kcal/mol
same,excess molar enthalpy,[2]; x2 = 0.5404,-0.0542 ± 0.000598 kcal/mol
same,excess molar enthalpy,[2]; x2 = 0.5969,-0.0539 ± 0.000598 kcal/mol
same,excess molar enthalpy,[2]; x2 = 0.6592,-0.0513 ± 0.000574 kcal/mol
same,excess molar enthalpy,[2]; x2 = 0.7249,-0.0461 ± 0.00055 kcal/mol
same,excess molar enthalpy,[2]; x2 = 0.795,-0.0386 ± 0.000478 kcal/mol
same,excess molar enthalpy,[2]; x2 = 0.8656,-0.028 ± 0.000406 kcal/mol
same,excess molar enthalpy,[2]; x2 = 0.9356,-0.0149 ± 0.000311 kcal/mol
"ClCCCCCCl [1,5-dichloropentane] + CCCCOC=O",mass density,[1]; x2 = 0.0753,1081.49 ± 0.48 kg/m3
same,mass density,[1]; x2 = 0.1366,1070.16 ± 0.46 kg/m3
same,mass density,[1]; x2 = 0.2613,1046.7 ± 0.41 kg/m3
same,mass density,[1]; x2 = 0.3251,1034.45 ± 0.39 kg/m3
same,mass density,[1]; x2 = 0.3849,1022.81 ± 0.37 kg/m3
same,mass density,[1]; x2 = 0.4446,1011 ± 0.34 kg/m3
same,mass density,[1]; x2 = 0.5039,999.1 ± 0.32 kg/m3
same,mass density,[1]; x2 = 0.6199,975.33 ± 0.35 kg/m3
same,mass density,[1]; x2 = 0.676,963.59 ± 0.37 kg/m3
same,mass density,[1]; x2 = 0.732,951.7 ± 0.38 kg/m3
same,mass density,[1]; x2 = 0.787,939.85 ± 0.39 kg/m3
same,mass density,[1]; x2 = 0.841,928.06 ± 0.41 kg/m3
same,mass density,[1]; x2 = 0.8939,916.34 ± 0.42 kg/m3
same,mass density,[1]; x2 = 0.9477,904.29 ± 0.44 kg/m3
same,excess molar enthalpy,[2]; x2 = 0.0722,0.000717 ± 0.000191 kcal/mol
same,excess molar enthalpy,[2]; x2 = 0.1463,-0.000837 ± 0.000191 kcal/mol
same,excess molar enthalpy,[2]; x2 = 0.2242,-0.0054 ± 0.000239 kcal/mol
same,excess molar enthalpy,[2]; x2 = 0.2989,-0.0111 ± 0.000287 kcal/mol
same,excess molar enthalpy,[2]; x2 = 0.3685,-0.0188 ± 0.000335 kcal/mol
same,excess molar enthalpy,[2]; x2 = 0.4319,-0.0268 ± 0.000406 kcal/mol
same,excess molar enthalpy,[2]; x2 = 0.4894,-0.0315 ± 0.00043 kcal/mol
same,excess molar enthalpy,[2]; x2 = 0.5395,-0.0354 ± 0.000454 kcal/mol
same,excess molar enthalpy,[2]; x2 = 0.5701,-0.037 ± 0.000478 kcal/mol
same,excess molar enthalpy,[2]; x2 = 0.5843,-0.0369 ± 0.000478 kcal/mol
same,excess molar enthalpy,[2]; x2 = 0.6266,-0.0344 ± 0.000454 kcal/mol
same,excess molar enthalpy,[2]; x2 = 0.6861,-0.0311 ± 0.00043 kcal/mol
same,excess molar enthalpy,[2]; x2 = 0.7462,-0.0271 ± 0.000406 kcal/mol
same,excess molar enthalpy,[2]; x2 = 0.8107,-0.0216 ± 0.000359 kcal/mol
same,excess molar enthalpy,[2]; x2 = 0.8755,-0.0156 ± 0.000311 kcal/mol
same,excess molar enthalpy,[2]; x2 = 0.9382,-0.00894 ± 0.000263 kcal/mol
